According to patent US8119624B2, “Fused phenyl amido heterocyclic compounds” (Pfizer Inc., priority 2006, dated 2012):

Biological target: T1, Full-length glucokinase (beta cell isoform) (Homo sapiens, UniProt P35557)
T1 construct: Full-length glucokinase (beta cell isoform) was His-tagged at N-terminus; His tag (N); made in house
T1 sequence (P35557 1-465): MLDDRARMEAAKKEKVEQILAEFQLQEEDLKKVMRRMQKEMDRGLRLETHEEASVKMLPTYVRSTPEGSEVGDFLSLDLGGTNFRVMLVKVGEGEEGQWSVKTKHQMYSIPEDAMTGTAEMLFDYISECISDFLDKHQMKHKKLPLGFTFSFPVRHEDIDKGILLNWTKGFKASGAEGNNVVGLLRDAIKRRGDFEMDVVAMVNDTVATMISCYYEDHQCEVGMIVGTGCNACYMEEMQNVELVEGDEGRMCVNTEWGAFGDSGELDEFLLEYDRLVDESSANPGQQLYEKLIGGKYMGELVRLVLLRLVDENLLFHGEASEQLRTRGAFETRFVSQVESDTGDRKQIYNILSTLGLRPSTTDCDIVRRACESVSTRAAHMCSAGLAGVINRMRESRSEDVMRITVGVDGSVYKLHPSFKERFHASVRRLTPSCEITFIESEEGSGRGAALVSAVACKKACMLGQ
Experiment: Glucokinase biochemical assay (PK/LDH-coupled, NADH depletion at 340 nm): % activation, EC50, % max activation
Conditions: 5 mM glucose; for activation at 10 µM: read-out: % Activation at 10 uM; for EC50: GK activation, read-out: EC50; for Emax: read-out: % Max Activation
In short: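 N-terminally His-tagged full-length human beta-cell glucokinase, room temperature, 5 mM glucose, 1 mM ATP, PK/LDH-coupled with 0.7 mM NADH, 1% DMSO final. Initial velocity from the 200–900 s slope of A340 decline. % activation = (Va/Vo−1)×100, measured across compound concentrations.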

[1] = 10 uM compound, % Activation=(Va/Vo−1)×100

Row | activation at 10 µM [1] | EC50 | Emax (fitted maximum activation) | % Activation at 10 uM (compound at 10 uM, 1 mM ATP, room temperature) | % Activation at 10 uM [1] | % Max Activation (fitted maximum activation) | SMILES
1 | 172% | 270 nM | 158% |  |  |  | COCCN(C)C(=O)c1ccc(Oc2cc(C(=O)Nc3ccn(C)n3)cc3c2CC(C)(C)O3)cc1F [Example 64, 4-{3-Fluoro-4-[(2-methoxy-ethyl)-methyl-carbamoyl]-phenoxy}-2,2-dimethyl-2,3-dihydro-benzofuran-6-carboxylic acid(1-methyl-1H-pyrazol-3-yl)-amide]
2 | 34.8% | 7000 nM | 59% |  |  |  | Cc1cc2c(Oc3ccc(S(C)(=O)=O)cc3)cc(C(=O)Nc3cccc(C(C)O)n3)cc2o1 (stereo not shown) [Example 269, N-(6-(1-Hydroxyethyl)pyridin-2-yl)-2-methyl-4-(4-(methylsulfonyl)phenoxy)-benzofuran-6-carboxamide]
3 | 0.9% |  |  |  |  |  | Cc1csc2cc(C(=O)Nc3ccn(C)n3)cc(Oc3ccc(S(C)(=O)=O)cc3)c12 [Example 351, 3-Methyl-N-(1-methyl-1H-pyrazol-3-yl)-4-[4-(methylsulfonyl)-phenoxy]-1-benzothiophene-6-carboxamide]
4 | 6.4% | > 10000 nM |  |  |  |  | Cc1cc2c(Oc3ccc(S(C)(=O)=O)cc3)cc(C(=O)Nc3cccc(CO)n3)cc2o1 [Example 268, N-(6-(Hydroxymethyl)pyridin-2-yl)-2-methyl-4-(4-(methylsulfonyl)phenoxy)-benzofuran-6-carboxamide]
5 | 85.2% | 45 nM | 115% |  |  |  | CN(C)C(=O)c1c(F)cc(Oc2cc(C(=O)Nc3ccn(C)n3)cc3c2CC(C)(C)O3)cc1F [Example 111, 4-(4-Dimethylcarbamoyl-3,5-difluoro-phenoxy)-2,2-dimethyl-2,3-dihydro-benzofuran-6-carboxylic acid (1-methyl-1H-pyrazol-3-yl)-amide]
6 | 100% | 4300 nM | 132% |  |  |  | Cc1ccc(NC(=O)c2cc(Oc3ccc(S(C)(=O)=O)cc3)c3cc(C(F)F)oc3c2)nc1 [Example 321, 2-(Difluoromethyl)-N-(5-methylpyridin-2-yl)-4-[4-(methylsulfonyl)-phenoxy]-1-benzofuran-6-carboxamide]
7 | 12.8% |  |  |  |  |  | Cc1ccc(NC(=O)c2cc(Oc3ccc(S(C)(=O)=O)cc3)c3cc(C(=O)N4CCC4)oc3c2)nc1 [Example 290, 2-(Azetidin-1-ylcarbonyl)-N-(5-methylpyridin-2-yl)-4-[4-(methylsulfonyl)-phenoxy]-1-benzofuran-6-carboxamide]
8 | 249% | 2100 nM | 285% |  |  |  | Cn1ccc(NC(=O)c2cc3c(c(Oc4ccc(S(C)(=O)=O)cc4)c2F)CC(C)(C)O3)n1 [Example 192, 5-Fluoro-4-(4-methanesulfonyl-phenoxy)-2,2-dimethyl-2,3-dihydro-benzofuran-6-carboxylic acid (1-methyl-1H-pyrazol-3-yl)-amide]
9 | 248% | 104 nM | 227% |  |  |  | Cn1ccc(NC(=O)c2cc(Oc3ccc(-c4ncon4)c(F)c3)c3c(c2)OC(C)(C)C3)n1 [Example 185, 4-(3-Fluoro-4-[1,2,4]oxadiazol-3-yl-phenoxy)-2,2-dimethyl-2,3-dihydro-benzofuran-6-carboxylic acid (1-methyl-1H-pyrazol-3-yl)-amide]
10 | 197% | 400 nM | 200% |  |  |  | CC1(C)Cc2c(Oc3ccc(S(C)(=O)=O)cc3)cc(C(=O)Nc3ccon3)cc2O1 [Example 26, 4-(4-Methanesulfonyl-phenoxy)-2,2-dimethyl-2,3-dihydro-benzofuran-6-carboxylic acid isoxazol-3-ylamide]
11 | 80.5% | 200 nM | 79% |  |  |  | Cc1ccc(NC(=O)c2cc(Oc3ccc(S(C)(=O)=O)cc3F)c3c(c2)OC(C)(C)C3)nc1 [Example 120, 4-(2-Fluoro-4-methanesulfonyl-phenoxy)-2,2-dimethyl-2,3-dihydro-benzofuran-6-carboxylic acid (5-methyl-pyridin-2-yl)-amide]
12 |  |  |  | 19.9% |  |  | Cc1ccc(NC(=O)c2cc(Oc3ccc(S(=O)(=O)C4CC4)c(F)c3)c3c(c2)OC(C)(CO)C3)nc1 (single isomer, unassigned; (-)) [Example 402, (−)-4-(4-Cyclopropanesulfonyl-3-fluoro-phenoxy)-2-hydroxymethyl-2-methyl-2,3-dihydro-benzofuran-6-carboxylic acid(5-methyl-pyridin-2-yl)-amide]
13 | 41.3% | > 10000 nM |  |  |  |  | Cc1cc2cc(C(=O)Nc3ccn(C)n3)cc(O[C@@H](C)Cc3ccccc3)c2s1 [Example 328, 2-Methyl-7-(1-methyl-2-phenylethoxy)-N-(1-methyl-1H-pyrazol-3-yl)-1-benzothiophene-5-carboxamide]
14 |  | 210 nM |  |  | 287% | 234% | COCC1(C)Cc2c(Oc3ccc(C(=O)N4CCC4)c(F)c3)cc(C(=O)Nc3ccn(C)n3)cc2O1 (single isomer, unassigned; (+)) [Example 244, (+)-4-[4-(Azetidine-1-carbonyl)-3-fluoro-phenoxy]-2-methoxymethyl-2-methyl-2,3-dihydro-benzofuran-6-carboxylic acid (1-methyl-1H-pyrazol-3-yl)-amide]
15 | 173% | 97 nM | 163% |  |  |  | CN(C)C(=O)c1ccc(Oc2cc(C(=O)Nc3ccn(C)n3)cc3c2CC(C)(C)O3)c(Cl)c1 [Example 107, 4-(2-Chloro-4-dimethylcarbamoyl-phenoxy)-2,2-dimethyl-2,3-dihydro-benzofuran-6-carboxylic acid (1-methyl-1H-pyrazol-3-yl)-amide]
16 | 39.2% | 2500 nM | 41% |  |  |  | Cc1ccc(NC(=O)c2cc(Oc3ccc(S(C)(=O)=O)cc3)c3cc(Cn4ccnc4C)oc3c2)nc1 [Example 320, 2-[(2-Methyl-1H-imidazol-1-yl)methyl]-N-(5-methylpyridin-2-yl)-4-[4-(methylsulfonyl)phenoxy]-1-benzofuran-6-carboxamide]
17 | 127% | 2800 nM | 100% |  |  |  | Cc1ccc(NC(=O)c2cc3c(c(Oc4ccc(S(C)(=O)=O)cc4)c2)CCO3)nc1 [Example 8, 4-(4-Methanesulfonyl-phenoxy)-2,3-dihydro-benzofuran-6-carboxylic acid(5-methyl-pyridin-2-yl)-amide]
18 | 105% | 120 nM | 104% |  |  |  | CN(C)C(=O)c1ccc(Oc2cc(C(=O)Nc3ccn(C)n3)cc3c2CC(C)(C)O3)cc1 [Example 149, 4-(4-Dimethylcarbamoyl-phenoxy)-2,2-dimethyl-2,3-dihydro-benzofuran-6-carboxylic acid (1-methyl-1H-pyrazol-3-yl)-amide]
19 | 118% | 730 nM | 137% |  |  |  | COCc1cc2c(Oc3ccc(S(C)(=O)=O)cc3)cc(C(=O)Nc3ccn(C)n3)cc2o1 [Example 310, 2-(Methoxymethyl)-N-(1-methyl-1H-pyrazol-3-yl)-4-[4-(methylsulfonyl)-phenoxy]-1-benzofuran-6-carboxamide]
20 | 112% | 4300 nM | 136% |  |  |  | Cc1ncsc1CCOc1cc(C(=O)Nc2ccn(C)n2)cc2c1CC(C)(C)O2 [Example 99, 2,2-Dimethyl-4-[2-(4-methyl-thiazol-5-yl)-ethoxy]-2,3-dihydro-benzofuran-6-carboxylic acid (1-methyl-1H-pyrazol-3-yl)-amide]
